Read-outs that look alike come from different tables or passages of the source.
How the values were obtained:
MRSA COL (MB5393) [1] = experiment: TarO Inhibitor/β-Lactam Synergy Assay (growth, OD600); type: cell-based, Staphylococcus aureus; conditions: for MITC95 TarO inhibitor + 4 μg/mL IPM; Bacteria: SA_MB5393: in combination with 4 μg/mL imipenem (IPM); for MITC95 TarO inhibitor + 8 μg/mL DCX; Bacteria: SA_MB5393: in combination with 8 μg/mL dicloxacillin (DCX)
Procedure: The TarO inhibitor/β-lactam synergy assay was performed to measure the re-sensitization of methicillin-resistant Staphylococci bacteria (MB5393: MRSA COL) to β-lactam antibiotics by TarO inhibitors. MRSA COL is a hospital-acquired penicillinase-negative clinically isolated strain commonly used in Staphylococcus aureus studies and is fully resistant to the antimicrobial bioactivity of β-lactam antibiotics, including but not limited to imipenem and dicloxacillin. […] MRSA COL is fully refractory to β-lactam antibiotic effect at the current clinical breakpoint concentrations and as such MRSA COL is fully viable at these concentrations.
The β-lactam antibiotic concentration was fixed at the clinical breakpoint (imipenem 4 μg/ml or dicloxacillin 8 μg/ml) and the TarO inhibitors were titrated by 2 fold starting from the highest concentration of 200 μM with final DMSO concentration of 2% in the assay. 5×10^5 colony forming unit of MRSA COL in cation-adjusted Mueller Hinton broth (CAMHB) was then mixed and the assay plate was incubated for 20 hours at 37° C. without shaking. After 20 hours, the optical density at 600 nm (OD600) was read for all wells to determine relative growth of MRSA COL.

MRSA COL (MB5393) [2] = experiment: as above; type: cell-based; conditions: Staphylococcus aureus, read-out: MITC95 TarO inhibitor alone, Bacteria: SA_MB5393
[3] = TarO inhibitor alone, >200 μM = 95% growth inhibition not achieved, 20 hours at 37° C.

Compound	MITC95 TarO inhibitor + 4 μg/mL IPM; Bacteria: SA_MB5393 (MRSA COL (MB5393) [1])	MITC95 TarO inhibitor + 8 μg/mL DCX; Bacteria: SA_MB5393 (MRSA COL (MB5393) [1])	IC95 (MRSA COL (MB5393) [2]; [3])	IC95 (MRSA COL (MB5393) [2]; 20 h)
Cc1cnc(F)c(CNC(=O)N2C(=O)O[C@H](c3cc(C(F)(F)F)cc(C(F)(F)F)c3)[C@@H]2C)c1 [Example 35, (4S,5R)-5-[3,5-bis(trifluoromethyl)phenyl]-N-[(2-fluoro-5-methylpyridin-3-yl)methyl]-4-methyl-2-oxo-1,3-oxazolidine-3-carboxamide]	0.10 µM	0.98 µM	> 200 µM	
C[C@H]1[C@@H](c2cc(F)cc(C(F)(F)F)c2)OC(=O)N1C(=O)NCc1ccccc1CN(C)C [Example 36, (4S,5R)-N-{2-[(dimethylamino)methyl]benzyl}-5-[3-fluoro-5-(trifluoromethyl)phenyl]-4-methyl-2-oxo-1,3-oxazolidine-3-carboxamide]	6.25 µM	25 µM	> 200 µM	
C[C@H]1[C@@H](c2cc(F)cc(C(F)(F)F)c2)OC(=O)N1C(=O)NCc1cccc2ncccc12 [Example 37, (4S,5R)-5-[3-fluoro-5-(trifluoromethyl)phenyl]-4-methyl-2-oxo-N-(quinolin-5-ylmethyl)-1,3-oxazolidine-3-carboxamide]	0.98 µM	2.73 µM	> 200 µM	
COc1cccnc1CNC(=O)N1C(=O)O[C@H](c2cc(C(F)(F)F)cc(C(F)(F)F)c2)[C@@H]1C [Example 38, (4S,5R)-5-[3,5-bis(trifluoromethyl)phenyl]-N-[(3-methoxypyridin-2-yl)methyl]-4-methyl-2-oxo-1,3-oxazolidine-3-carboxamide]	1.56 µM	25 µM	> 200 µM	
C[C@H]1[C@@H](c2cc(F)cc(C(F)(F)F)c2)OC(=O)N1C(=O)NCc1cccc2cn[nH]c12 [Example 39, (4S,5R)-5-[3-fluoro-5-(trifluoromethyl)phenyl]-N-(1H-indazol-7-ylmethyl)-4-methyl-2-oxo-1,3-oxazolidine-3-carboxamide]	0.78 µM	25 µM	> 200 µM	
C[C@H]1[C@@H](c2cc(F)cc(C(F)(F)F)c2)OC(=O)N1C(=O)NCc1cccc2c1C(=O)NC2 [Example 40]	18.75 µM	50 µM	> 200 µM	
Cc1cccnc1CCNC(=O)N1C(=O)O[C@H](c2cc(C(F)(F)F)cc(C(F)(F)F)c2)[C@@H]1C [Example 41, (4S,5R)-5-[3,5-bis(trifluoromethyl)phenyl]-4-methyl-N-[2-(3-methylpyridin-2-yl)ethyl]-2-oxo-1,3-oxazolidine-3-carboxamide]	1.56 µM	16.67 µM	> 200 µM	
C[C@H]1[C@@H](c2cc(C(F)(F)F)cc(C(F)(F)F)c2)OC(=O)N1C(=O)NCc1cnc2c(c1)CCC2 [Example 42, (4S,5R)-5-[3,5-bis(trifluoromethyl)phenyl]-N-(6,7-dihydro-5H-cyclopenta[b]pyridin-3-ylmethyl)-4-methyl-2-oxo-1,3-oxazolidine-3-carboxamide]	0.78 µM	12.50 µM	> 200 µM	
Cc1nc(C)c(CNC(=O)N2C(=O)O[C@H](c3cc(F)cc(C(F)(F)F)c3)[C@@H]2C)s1 [Example 43, (4S,5R)-N-[(2,4-dimethyl-1,3-thiazol-5-yl)methyl]-5-[3-fluoro-5-(trifluoromethyl)phenyl]-4-methyl-2-oxo-1,3-oxazolidine-3-carboxamide]	5.21 µM	42 µM	> 200 µM	
C[C@H]1[C@@H](c2cc(F)cc(C(F)(F)F)c2)OC(=O)N1C(=O)NCc1ccccc1S(C)(=O)=O [Example 44, (4S,5R)-5-[3-fluoro-5-(trifluoromethyl)phenyl]-4-methyl-N-[2-(methylsulfonyl)benzyl]-2-oxo-1,3-oxazolidine-3-carboxamide]	12.50 µM	25 µM	> 200 µM	
C[C@H]1[C@@H](c2cc(C(F)(F)F)cc(C(F)(F)F)c2)OC(=O)N1C(=O)NCc1cccnc1N1CCOCC1 [Example 45, (4S,5R)-5-[3,5-bis(trifluoromethyl)phenyl]-4-methyl-N-[(2-morpholin-4-ylpyridin-3-yl)methyl]-2-oxo-1,3-oxazolidine-3-carboxamide]	4.69 µM	25 µM	> 200 µM	
C[C@H]1[C@@H](c2cc(F)cc(C(F)(F)F)c2)OC(=O)N1C(=O)N(O)Cc1cccc2ccccc12 [Example 46, (4S,5R)-5-[3-fluoro-5-(trifluoromethyl)phenyl]-N-hydroxy-4-methyl-N-(naphthalen-1-ylmethyl)-2-oxo-1,3-oxazolidine-3-carboxamide]	6.25 µM	50 µM	> 200 µM	
C[C@H]1[C@@H](c2cc(F)cc(C(F)(F)F)c2)OC(=O)N1C(=O)NCc1cnc2sccn12 [Example 47, (4S,5R)-5-[3-fluoro-5-(trifluoromethyl)phenyl]-N-(imidazo[2,1-b][1,3]thiazol-5-ylmethyl)-4-methyl-2-oxo-1,3-oxazolidine-3-carboxamide]	62 µM	50 µM	> 200 µM	
C[C@H]1[C@@H](c2cc(F)cc(C(F)(F)F)c2)OC(=O)N1C(=O)NCc1cncc2ccccc12 [Example 48, (4S,5R)-5-[3-fluoro-5-(trifluoromethyl)phenyl]-N-(isoquinolin-4-ylmethyl)-4-methyl-2-oxo-1,3-oxazolidine-3-carboxamide]	0.13 µM	0.39 µM	> 200 µM	
C[C@H]1[C@@H](c2cc(C(F)(F)F)cc(C(F)(F)F)c2)OC(=O)N1C(=O)NCc1cccc2c1OCCO2 [Example 49, (4S,5R)-5-[3,5-bis(trifluoromethyl)phenyl]-N-(2,3-dihydro-1,4-benzodioxin-5-ylmethyl)-4-methyl-2-oxo-1,3-oxazolidine-3-carboxamide]	0.02 µM	0.13 µM	> 200 µM	
O=C(NCc1cncc2ccccc12)N1C(=O)O[C@H](c2cc(C(F)(F)F)cc(C(F)(F)F)c2)[C@@H]1CO [Example 50, (4S,5R)-5-(3,5-bis(trifluoromethyl)phenyl)-4-(hydroxymethyl)-N-(isoquinolin-4-ylmethyl)-2-oxooxazolidine-3-carboxamide]	0.22 µM	0.64 µM		> 200 µM
COc1cc([C@H]2OC(=O)N(C(=O)NCc3cncc4cccnc34)[C@H]2CO)cc(C(F)(F)F)c1 [Example 51, (4S,5R)-4-(hydroxymethyl)-5-[3-methoxy-5-(trifluoromethyl)phenyl]-N-(1,6-naphthyridin-8-yl-methyl)-2-oxo-1,3-oxazolidine-3-carboxamide]	1.56 µM	8.33 µM	> 200 µM	
COc1cccc(CNC(=O)N2C(=O)O[C@H](c3cc(C(F)(F)F)cc(C(F)(F)F)c3)[C@@H]2CO)c1OC [Example 52, (4S,5R)-5-[3,5-bis(trifluoromethyl)phenyl]-N-(2,3-dimethoxybenzyl)-4-(hydroxymethyl)-2-oxo-1,3-oxazolidine-3-carboxamide]	0.03 µM	0.06 µM	> 200 µM	
O=C(NCc1cncc2cccnc12)N1C(=O)O[C@H](c2cc(C(F)(F)F)cc(C(F)(F)F)c2)[C@@H]1CO [Example 53, (4S,5R)-5-[3,5-bis(trifluoromethyl)phenyl]-4-(hydroxymethyl)-N-(1,6-naph-thyridin-8-yl-methyl)-2-oxo-1,3-oxazolidine-3-carboxamide]	0.39 µM	1.37 µM	> 200 µM	
